Assay results from patent US10968178B2, “IP6K inhibitors” (TAKEDA PHARMACEUTICAL COMPANY LIMITED, priority 2017, dated 2021).

How the values were obtained:
Assay type in all cases: biochemical
human IP6K2 = molecular target: T1, human IP6K2 (Homo sapiens, UniProt Q9UHH9); assay: IP6K enzyme inhibitory assay (ADP-Glo Kinase Assay), human IP6K2; details: compound concentration 0.1 μM; for inhibition at 0.1 µM: read-out: ADP-Glo method inhibitory rate (%) human IP6K2
T1 construct: human IP6K2 (1-426) gene; GST; made in house; host or cells: Sf-9 insect cells
T1 sequence (Q9UHH9 1-426): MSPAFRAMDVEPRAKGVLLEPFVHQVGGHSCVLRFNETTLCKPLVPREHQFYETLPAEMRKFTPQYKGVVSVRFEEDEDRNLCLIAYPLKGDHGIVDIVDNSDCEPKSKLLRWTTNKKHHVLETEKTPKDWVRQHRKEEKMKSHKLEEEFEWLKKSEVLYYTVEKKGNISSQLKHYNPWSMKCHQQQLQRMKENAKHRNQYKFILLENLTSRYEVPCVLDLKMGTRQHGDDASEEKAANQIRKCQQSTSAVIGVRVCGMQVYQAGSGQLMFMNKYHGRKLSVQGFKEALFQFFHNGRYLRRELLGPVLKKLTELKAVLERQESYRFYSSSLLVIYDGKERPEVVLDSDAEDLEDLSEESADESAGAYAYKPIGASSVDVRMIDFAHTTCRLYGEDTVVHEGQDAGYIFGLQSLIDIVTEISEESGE
Description: (§1) IP6K Enzyme Inhibitory Assay
(§2) Human IP6K3 enzyme was prepared by transducing human IP6K3 (1-410) gene into BL21 (DE3) Escherichia coli and purifying by Ni-NTA (nickel-nitrilotriacetic acid) affinity column. […] The enzymes were used after preservation at −70° C. The IP6K enzyme inhibitory activity of the test compound was measured by the following experiment method and using ADP-Glo™ Kinase Assay (manufactured by Promega). A test compound diluted with an assay buffer (20 mM HEPES (pH 7.5), 6 mM MgCl2, 0.01% Tween-20, 1 mM DTT) was first added by 2 μL to a 384 well plate. […] The IP6K enzyme solution diluted with the assay buffer was added by 2 μL to start the enzyme reaction. Incubation was performed at room temperature for a given time (120 min for rat IP6K3 alone, 60 min for others). After incubation at room temperature, ADP-Glo solution prepared according to the protocol of Promega was added by 3 μL to the 384 well plate and reacted at room temperature for 30 min. Thereafter, Kinase-Detection solution was added by 6 μL to the 384 well plate and reacted at room temperature for 60 min. After the reaction, the luminescence intensity was measured by a plate reader Envision (manufactured by PerkinElmer).

human IP6K3 = molecular target: T2, human IP6K3 (Homo sapiens, UniProt Q96PC2); assay: IP6K enzyme inhibitory assay (ADP-Glo Kinase Assay), human IP6K3; details: compound concentration 0.1 μM; for inhibition at 0.1 µM: read-out: ADP-Glo method inhibitory rate (%) human IP6K3
T2 construct: human IP6K3 (1-410) gene; made in house; host or cells: BL21 (DE3) Escherichia coli
T2 sequence (Q96PC2 1-410): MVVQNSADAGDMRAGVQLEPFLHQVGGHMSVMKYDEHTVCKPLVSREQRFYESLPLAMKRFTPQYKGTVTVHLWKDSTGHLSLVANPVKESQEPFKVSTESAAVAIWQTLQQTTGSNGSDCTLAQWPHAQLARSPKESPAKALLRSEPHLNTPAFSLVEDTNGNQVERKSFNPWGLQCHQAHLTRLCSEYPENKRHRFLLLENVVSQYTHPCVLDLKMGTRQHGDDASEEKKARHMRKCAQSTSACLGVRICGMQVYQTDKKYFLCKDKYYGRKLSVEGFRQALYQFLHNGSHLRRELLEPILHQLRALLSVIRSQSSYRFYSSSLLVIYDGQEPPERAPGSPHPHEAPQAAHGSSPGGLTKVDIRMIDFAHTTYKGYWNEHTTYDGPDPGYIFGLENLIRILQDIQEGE
Description: as §1, §2

human IP6K1 = molecular target: T3, human IP6K1 (Homo sapiens, UniProt Q92551); assay: IP6K enzyme inhibitory assay (ADP-Glo Kinase Assay), human IP6K1; details: compound concentration 0.1 μM; for inhibition at 0.1 µM: read-out: ADP-Glo method inhibitory rate (%) human IP6K1
T3 construct: human IP6K1 (1-441) gene; GST; made in house; host or cells: Sf-9 insect cells
T3 sequence (Q92551 whole entry): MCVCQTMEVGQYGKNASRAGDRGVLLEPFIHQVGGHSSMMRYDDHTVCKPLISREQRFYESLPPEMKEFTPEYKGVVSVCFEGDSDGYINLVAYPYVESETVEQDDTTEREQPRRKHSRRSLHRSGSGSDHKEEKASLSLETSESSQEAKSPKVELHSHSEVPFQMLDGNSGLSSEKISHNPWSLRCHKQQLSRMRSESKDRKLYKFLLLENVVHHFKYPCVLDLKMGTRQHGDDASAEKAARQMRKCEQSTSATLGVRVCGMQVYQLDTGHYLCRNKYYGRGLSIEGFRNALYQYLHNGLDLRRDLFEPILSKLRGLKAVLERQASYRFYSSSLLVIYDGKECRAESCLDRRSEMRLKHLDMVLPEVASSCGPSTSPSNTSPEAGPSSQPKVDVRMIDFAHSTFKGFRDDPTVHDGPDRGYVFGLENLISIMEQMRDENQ
Description: as §1, §2

SMILES | inhibition at 0.1 µM (human IP6K2) | inhibition at 0.1 µM (human IP6K3) | inhibition at 0.1 µM (human IP6K1) | ADP-Glo method inhibitory rate (%) human IP6K2 (human IP6K2) | ADP-Glo method inhibitory rate (%) human IP6K3 (human IP6K3) | ADP-Glo method inhibitory rate (%) human IP6K1 (human IP6K1)
O=C(O)c1ccc2c(c1)[C@]1(CC[C@@H](Oc3cnc4c(c3)CCCO4)CC1)C(=O)N2 [Example 37, (1r,4r)-4-(3,4-dihydro-2H-pyrano[2,3-b]pyridin-6-yloxy)-2′-oxo-1′,2′-dihydrospiro[cyclohexane-1,3′-indole]-5′-carboxylic acid] | 50% | 82% | 51% |  |  | 
Cc1cc(C)nc(O[C@H]2CC[C@@]3(CC2)C(=O)Nc2ccc(C(=O)O)cc23)n1 [Example 38, (1r,4r)-4-((4,6-dimethylpyrimidin-2-yl)oxy)-2′-oxo-1′,2′-dihydrospiro[cyclohexane-1,3′-indole]-5′-carboxylic acid] | 47% | 86% | 55% |  |  | 
Cc1nc(O[C@H]2CC[C@@]3(CC2)C(=O)Nc2ccc(C(=O)O)cc23)nc(C)c1Cl [Example 39, (1r,4r)-4-((5-chloro-4,6-dimethylpyrimidin-2-yl)oxy)-2′-oxo-1′,2′-dihydrospiro[cyclohexane-1,3′-indole]-5′-carboxylic acid] | 74% | 95% | 80% |  |  | 
Cc1cc(O[C@H]2CC[C@@]3(CC2)C(=O)Nc2ccc(C(=O)O)cc23)nc(C)n1 [Example 40, (1r,4r)-4-((2,6-dimethylpyrimidin-4-yl)oxy)-2′-oxo-1′,2′-dihydrospiro[cyclohexane-1,3′-indole]-5′-carboxylic acid] | 18% | 49% | 14% |  |  | 
Cc1cccc(O[C@H]2CC[C@@]3(CC2)C(=O)Nc2ccc(C(=O)O)cc23)c1 [Example 42, (1r,4r)-4-(3-methylphenoxy)-2′-oxo-1′,2′-dihydrospiro[cyclohexane-1,3′-indole]-5′-carboxylic acid] | 90% | 97% | 81% |  |  | 
Cc1ccc(O[C@H]2CC[C@@]3(CC2)C(=O)Nc2ccc(C(=O)O)cc23)cc1 [Example 43, (1r,4r)-4-(4-methylphenoxy)-2′-oxo-1′,2′-dihydrospiro[cyclohexane-1,3′-indole]-5′-carboxylic acid] | 99% | 100% | 98% |  |  | 
N#Cc1ccccc1O[C@H]1CC[C@@]2(CC1)C(=O)Nc1ccc(C(=O)O)cc12 [Example 44, (1r,4r)-4-(2-cyanophenoxy)-2′-oxo-1′,2′-dihydrospiro[cyclohexane-1,3′-indole]-5′-carboxylic acid] | 83% | 94% | 88% |  |  | 
N#Cc1ccc(O[C@H]2CC[C@@]3(CC2)C(=O)Nc2ccc(C(=O)O)cc23)cc1 [Example 45, (1r,4r)-4-(4-cyanophenoxy)-2′-oxo-1′,2′-dihydrospiro[cyclohexane-1,3′-indole]-5′-carboxylic acid] | 93% | 97% | 96% |  |  | 
Cc1cc(C)cc(O[C@H]2CC[C@@]3(CC2)C(=O)Nc2ccc(C(=O)O)cc23)c1 [Example 48, (1r,4r)-4-(3,5-dimethylphenoxy)-2′-oxo-1′,2′-dihydrospiro[cyclohexane-1,3′-indole]-5′-carboxylic acid] | 91% | 97% | 86% |  |  | 
COc1ccc(O[C@H]2CC[C@@]3(CC2)C(=O)Nc2ccc(C(=O)O)cc23)cc1 [Example 49, (1r,4r)-4-(4-methoxyphenxoy)-2′-oxo-1′,2′-dihydrospiro[cyclohexane-1,3′-indole]-5′-carboxylic acid] | 99% | 100% | 100% |  |  | 

Further lines, results first:

inhibition at 0.1 µM (human IP6K2) | inhibition at 0.1 µM (human IP6K3) | inhibition at 0.1 µM (human IP6K1) | ADP-Glo method inhibitory rate (%) human IP6K2 (human IP6K2) | ADP-Glo method inhibitory rate (%) human IP6K3 (human IP6K3) | ADP-Glo method inhibitory rate (%) human IP6K1 (human IP6K1) | SMILES
96% | 98% | 82% |  |  |  | Cc1ccc(O[C@H]2CC[C@@]3(CC2)C(=O)Nc2ccc(C(=O)O)cc23)c(C)n1 [Example 35, (1r,4r)-4-((2,6-dimethylpyridin-3-yl)oxy)-2′-oxo-1′,2′-dihydrospiro[cyclohexane-1,3′-indole]-5′-carboxylic acid]
92% | 95% | 72% |  |  |  | Cc1cc(C)c(O[C@H]2CC[C@@]3(CC2)C(=O)Nc2ccc(C(=O)O)cc23)cn1 [Example 36, (1r,4r)-4-((4,6-dimethylpyridin-3-yl)oxy)-2′-oxo-1′,2′-dihydrospiro[cyclohexane-1,3′-indole]-5′-carboxylic acid]
93% | 98% | 93% |  |  |  | Cc1ccccc1O[C@H]1CC[C@@]2(CC1)C(=O)Nc1ccc(C(=O)O)cc12 [Example 41, (1r,4r)-4-(2-methylphenoxy)-2′-oxo-1′,2′-dihydrospiro[cyclohexane-1,3′-indole]-5′-carboxylic acid]
98% | 99% | 97% |  |  |  | Cc1ccc(O[C@H]2CC[C@@]3(CC2)C(=O)Nc2ccc(C(=O)O)cc23)cc1C [Example 46, (1r,4r)-4-(3,4-dimethylphenoxy)-2′-oxo-1′,2′-dihydrospiro[cyclohexane-1,3′-indole]-5′-carboxylic acid]
 |  |  | 96% | 99% | 99% | Cc1ccc(O[C@H]2CC[C@@]3(CC2)C(=O)Nc2ccc(C(=O)O)cc23)c(C)c1 [Example 47, (1r,4r)-4-(2,4-dimethylphenoxy)-2′-oxo-1′,2′-dihydrospiro[cyclohexane-1,3′-indole]-5′-carboxylic acid]
100% | 96% | 101% |  |  |  | Cc1cc(F)ccc1O[C@H]1CC[C@@]2(CC1)C(=O)Nc1ccc(C(=O)O)cc12 [Example 50, (1r,4r)-4-(4-fluoro-2-methylphenoxy)-2′-oxo-1′,2′-dihydrospiro[cyclohexane-1,3′-indole]-5′-carboxylic acid]
97% | 96% | 98% |  |  |  | Cc1cc(O[C@H]2CC[C@@]3(CC2)C(=O)Nc2ccc(C(=O)O)cc23)ccc1F [Example 51, (1r,4r)-4-(4-fluoro-3-methylphenoxy)-2′-oxo-1′,2′-dihydrospiro[cyclohexane-1,3′-indole]-5′-carboxylic acid]
100% | 96% | 99% |  |  |  | Cc1ccc(O[C@H]2CC[C@@]3(CC2)C(=O)Nc2ccc(C(=O)O)cc23)cc1F [Example 52, (1r,4r)-4-(3-fluoro-4-methylphenoxy)-2′-oxo-1′,2′-dihydrospiro[cyclohexane-1,3′-indole]-5′-carboxylic acid]
96% | 97% | 96% |  |  |  | Cc1cccc(O[C@H]2CC[C@@]3(CC2)C(=O)Nc2ccc(C(=O)O)cc23)c1F [Example 53, (1r,4r)-4-(2-fluoro-3-methylphenoxy)-2′-oxo-1′,2′-dihydrospiro[cyclohexane-1,3′-indole]-5′-carboxylic acid]
100% | 101% | 99% |  |  |  | Cc1ccc(O[C@H]2CC[C@@]3(CC2)C(=O)Nc2ccc(C(=O)O)cc23)c(F)c1 [Example 54, (1r,4r)-4-(2-fluoro-4-methylphenoxy)-2′-oxo-1′,2′-dihydrospiro[cyclohexane-1,3′-indole]-5′-carboxylic acid]
